Results reported in patent US10653653B2, “Salts of 5-aminolevulinic acid and derivatives” (priority 2016, dated 2020).

How the values were obtained:
A549 cells = assay: Measurement of PpIX formation in A549 cells in vitro; format: cell-based, human
Method: Test samples were dissolved with sterile saline to a concentration of 100 mM as stock solution. The stock solution was diluted to desired concentrations with culture medium or phosphate buffered solution (PBS).
A549 cells (ATCC), derived from human lung carcinoma, were grown in F12 medium (Gibco) containing 4.5 g/L glucose, 10% FCS, and penicillin/streptomycin, at 37° C. and 6% CO2 in a humid environment. For measurement purposes, the cells were sub-cultured in 48-well or 96-well dishes to give 5×10^4 cells/well 24 hours prior to incubation with test salts. The cells were washed twice with PBS and test solutions were added to the culture. After cells were incubated for 4, 8 or 24 hours, the medium was detached and the plates were rinsed twice with PBS, and PpIX natural fluorescence was measured at 360±40 nm excitation and 620±40 nm emission (CytoFluor Series 4000, Perspective Biosystems, MA, USA). The experiment was conducted in triplets.

[1] = Measurement of hydroscopicity (weight change method); format: physicochemical; settings: sealed container, moisture of 70-85%, ambient temperature, 24 hours
Method: Hydroscopicity of salts from present disclosure was measured using a weight change method. The test samples were placed in a sealed container with moisture of 70-85% at ambient temperature for 24 hours and their weigh change was measured. All three hydrochloride salts of 5-ALA, 5-MAL and 5-HAL, and 5-ALA TCA were hygroscopic, their weight was increased by 25˜75%.

[2] = tested on: upper surface of the tongue; assay: Measurement of potential skin irritation/stimulation on tongue surface; format: in vivo; parameters: key: A: no irritation; B: irritation; C: strong irritation; D: very strong irritation; settings: 3 mg on upper surface of the tongue for 3-5 minutes
Method: The potential irritation/stimulation of test samples was carried out by applying 3 mg of each sample to the upper surface of the tongue for 3-5 minutes and then evaluated.

Compound	Activity (relative activity to induce porphyrin formation) (A549 cells; 0.5 mM, 4 hrs)	Activity (relative activity to induce porphyrin formation) (A549 cells; 0.5 mM, 8 hrs)	Activity (relative activity to induce porphyrin formation) (A549 cells; 0.5 mM, 24 hrs)	Activity (relative activity to induce porphyrin formation) (A549 cells; 1 mM, 4 hrs)	Activity (relative activity to induce porphyrin formation) (A549 cells; 1 mM, 8 hrs)	Activity (relative activity to induce porphyrin formation) (A549 cells; 1 mM, 24 hrs)	appearance of sample after moisture exposure [1]	weight change (weight increase) [1]	irritation/stimulation on tongue surface ([2]; participant 1)	irritation/stimulation on tongue surface ([2]; participant 2)	irritation/stimulation on tongue surface ([2]; participant 3)	irritation/stimulation on tongue surface ([2]; participant 4)	Activity (relative activity to induce porphyrin formation) (A549 cells; 10 mM, 4 hrs)	Activity (relative activity to induce porphyrin formation) (A549 cells; 10 mM, 8 hrs)	Activity (relative activity to induce porphyrin formation) (A549 cells; 10 mM, 24 hrs)
Hexyl 5-Aminolevulinate 2,2,2-Trichloroacetate [5-HAL TCA]	1.15 ± 0.05	1.57 ± 0.11	2.72 ± 0.10	~2	~4	~10	unchanged as crystalline solid	remained unchanged	B	B	A	B	–	–	–
5-Aminolevulinic Acid 2,2,2-Trichloroacetate [5-ALA TCA]	–	–	–	–	–	–	turned to a liquid due to deliquescence	–	B	B	B	B	1.00 ± 0.02	1.30 ± 0.06	2.50 ± 0.17
COC(=O)CCC(=O)CN.Cl [5-MAL HCl, methyl 5-aminolevulinate hydrochloride, reference compound]	–	–	–	–	–	–	turned to a liquid due to deliquescence	–	C	C	C	C	1.27 ± 0.04	1.60 ± 0.12	2.22 ± 0.16
Cl.NCC(=O)CCC(=O)O [5-ALA HCl, 5-aminolevulinic acid hydrochloride, reference compound]	–	–	–	–	–	–	turned to a liquid due to deliquescence	–	D	C	D	C	1.00	1.42 ± 0.04	2.35 ± 0.19
CCCCCCOC(=O)CCC(=O)CN.Cl [5-HAL HCl, Hexyl 5-aminolevulinate hydrochloride, reference compound]	1.20 ± 0.15	1.57 ± 0.08	2.92 ± 0.30	~2	~4	~10	turned to a liquid due to deliquescence	–	B	C	C	B	–	–	–
Methyl 5-Aminolevulinate 2,2,2-Trichloroacetate [5-MAL TCA]	–	–	–	–	–	–	unchanged as crystalline solid	< 5%	B	B	B	B	1.20 ± 0.04	1.25 ± 0.02	2.20 ± 0.16
